Data: publication PMC5730604
Positions of bridges follow the written chain, without caps; N, C: chain ends. Non-standard residues stand in square brackets, D forms with d. Residues, ends and D or L forms follow the SMILES beside them. Chains are numbered I, II in the order given. *: point of attachment. PEG28 = NCCOCCOCCOCCOCCOCCOCCOCCOCCOCCOCCOCCOCCOCCOCCOCCOCCOCCOCCOCCOCCOCCOCCOCCOCCOCCOCCOCCOCCC(=O)O; Tyr(3-NO2) = N[C@@H](Cc1ccc(O)c([N+](=O)[O-])c1)C(=O)O; Hyp = O=C(O)[C@@H]1C[C@@H](O)CN1; For = O=C*

Columns and labels:
[1] = tested on: guinea pig skin; assay: Local skin inflammation model, immune cell infiltration; format: in vivo; settings: s.c. 100 nmol
Experimental: (§1) Animals: Eighth Edition. W ashington, DC: The National Academies Press, 2011) were […]
(§2) Committee (LANUV AZ. 87- 51.04.2010.A278). All experiments were performed in the Institute […]
(§3) GmbH (Sulzf eld, Germany) were used. Mice were housed in individual ventilated cages under […]
(§4) humidity and a 12h dark/light cycle.
(§5) Soest, Germany) was given ad libitum. Guinea pigs were housed in conventional open cages in the same way as describe for mice. Animals were allowed to acclimatize to their […]
(§6) additional immunohistochemical stainings with antibodies against granulocytes/monocytes

[2] = tested on: mouse skin; assay: as above; format: in vivo; settings: immune-deficient Balb/c nu/nu mice, s.c., 200 nmol to 500 nmol, 24 h
Experimental: as §1, §2, §3, §4, §5, §6

[3] = tested on: A431, U-87 or HT-29 cells; assay: MTT assay; format: cell-based, Human; settings: 100 nM to 10 µM, 24 h or 72 h, A431, U-87, HT-29 cells, triplicates
Experimental: were recorded at 278 K and referenced to the water signal. Spectra were assigned with CCPNMR1 using the sequential assignment protocol. Secondary Hα chemical shif ts were calculated as the difference between the measured Hα chemical shift and the respective random coil shif t.2 Random coil shifts were temperature corrected using the correction factors calculated by Kjaergaard et al.3 For the D-amino acids, the random coil shift of the respective L-amino acid was used, the random coil shif t of Tyr was used for Tyr(3-NO2) and 4.54 ppm was used f or Hyp Hα . Oxid ized Y9 (MW 5268.0) was prepared by dissolving Y9 in Na2HPO4 buff er (50 mM, pH 7.0). After HPLC purif ication, the oxidized Y9 (2.1 mg) was dissolved in 90% H2O/10% D2O (500 µL) at pH 2.9 and NMR spectra were acquired as described above. […]
Stained cells were analyzed by f low cytometr y. […]
At the end of the incubation period (24 h or 72 h at 37°C in 5% CO2) cells were 30- 80% conf luent. […] 04M HCl were added and absorbances were measured at 595 nm.
Absorbances were plotted against the agent’s concentrations. A high absorbance value […]
present in the well as compared to wells with low absorbance values.
Figure S13 : MTT assays showing no ef f ect of Y9 and sc- Y9 on the viability and prolif eration of diff erent tumor cell lines. […] To indicate background: the absorbance values of medium without cells were between 0.11 and […]

CC[C@H](C)[C@H](NC(=O)[C@H](CCSC)NC=O)C(=O)N[C@@H](Cc1ccccc1)C(=O)N[C@@H](CC(C)C)C(=O)NCC(=O)NCC(=O)N[C@@H](CCCCNC(=O)CCOCCOCCOCCOCCOCCOCCOCCOCCOCCOCCOCCOCCOCCOCCOCCOCCOCCOCCOCCOCCOCCOCCOCCOCCOCCOCCOCCOCCNC(=O)[C@H]1CSSC[C@@H](N)C(=O)N[C@H](CC(=O)O)C(=O)NCC(=O)N[C@@H](Cc2ccc(O)c([N+](=O)[O-])c2)C(=O)NCC(=O)N2C[C@H](O)C[C@H]2C(=O)N[C@@H](CC(N)=O)C(=O)N1)C(=O)N[C@@H](CCCCNC(=O)CCOCCOCCOCCOCCOCCOCCOCCOCCOCCOCCOCCOCCOCCOCCOCCOCCOCCOCCOCCOCCOCCOCCOCCOCCOCCOCCOCCOCCNC(=O)[C@H]1CSSC[C@@H](N)C(=O)N[C@H](CC(=O)O)C(=O)NCC(=O)N[C@@H](Cc2ccc(O)c([N+](=O)[O-])c2)C(=O)NCC(=O)N2C[C@H](O)C[C@H]2C(=O)N[C@@H](CC(N)=O)C(=O)N1)C(=O)O [Y9] (I: H-[dC][dD]G[Tyr(3-NO2)]G[Hyp]N[dC][PEG28] / II: H-[dC][dD]G[Tyr(3-NO2)]G[Hyp]N[dC][PEG28] / III: For-MIFLGGKK-OH; disulfide I:1-I:8, II:1-II:8; amide I:C-III:7, II:C-III:8)
immune infiltrate ([1]; guinea pigs immune suppressed by four weekly injections of cyclophosphamide): less intense
immune cell infiltration into the injection site ([1]; guinea pigs, 24 h): most pronounced
immune infiltrates [2]: dose-dependent increases in immune infiltrates
effect on viability and proliferation (MTT) [3]: No effect
